Results reported in PubChem BioAssay (NCI).
“And” between values parts separate entries of the source, which are not always exact repeats. Identical values can stand only once.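 Following 48 hours of exposure in 96-well plates, responses at five concentrations were used to interpolate endpoints linearly. GI50 is the concentration that inhibits growth by half. TGI is the concentration that stops growth completely.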

What was measured:
Assay in all cases: growth of human tumour cells (NCI), 48 h
MCF7 breast = system: MCF7 breast
HL-60(TB) leukemia = system: HL-60(TB) leukemia
MALME-3M melanoma = system: MALME-3M melanoma
NCI-H226 lung = system: NCI-H226 lung
HS 578T breast = system: HS 578T breast
SR leukemia = system: SR leukemia
A498 renal = system: A498 renal
OVCAR-8 ovarian = system: OVCAR-8 ovarian
PC-3 prostate = system: PC-3 prostate
MDA-N = system: MDA-N
KM20L2 colon = system: KM20L2 colon

## c1ccc(N2N=C(c3cccc(Nc4ccncc4)c3)CC2c2ccc3c(c2)OCO3)cc1 (centres undefined)
MCF7 breast
  GI50: 1740 nM
  TGI: 4.25 µM
HL-60(TB) leukemia
  GI50: 1770 nM
  TGI: 3.69 µM
MALME-3M melanoma
  GI50: 1570 nM
  TGI: 3.06 µM
NCI-H226 lung
  GI50: 2070 nM
  TGI: 5.05 µM
HS 578T breast
  GI50: 1550 nM
  TGI: 3.42 µM
SR leukemia
  GI50: 955 nM
  TGI: 2.89 µM
A498 renal
  GI50: 1240 nM
  TGI: 5.58 µM

## CCOC1=NC(C(F)(F)F)(C(F)(F)F)N=C(N2CCOCC2)O1
OVCAR-8 ovarian
  TGI: > 100 µM
MCF7 breast
  TGI: > 100 µM
PC-3 prostate
  TGI: > 100 µM
HL-60(TB) leukemia
  TGI: > 100 µM
MDA-N
  TGI: > 100 µM
HS 578T breast
  TGI: > 100 µM
SR leukemia
  TGI: > 100 µM

## COc1nc2ccc(COc3ccc(C(=O)NC(CCC(=O)O)C(=O)O)cc3)cc2nc1OC (centres undefined)
MCF7 breast
  TGI: > 10 µM
PC-3 prostate
  TGI: > 10 µM
HL-60(TB) leukemia
  TGI: > 10 µM
MDA-N
  TGI: > 10 µM
NCI-H226 lung
  TGI: > 10 µM
HS 578T breast
  TGI: > 10 µM
SR leukemia
  TGI: > 10 µM

## COc1cc([C@@H]2c3cc4c(c(O)c3C[C@H]3COC(=O)[C@@H]32)OCO4)cc(OC)c1OC
MCF7 breast
  GI50: 34.9 nM
PC-3 prostate
  GI50: 42.8 nM and 161 nM
  TGI: > 241 µM
KM20L2 colon
  TGI: 0.522 µM
HL-60(TB) leukemia
  GI50: 582 nM
NCI-H226 lung
  GI50: 364 nM
  TGI: 150 µM and 19.6 µM
SR leukemia
  GI50: 1460 nM and 812 nM
A498 renal
  TGI: > 100 µM

## O=C1C(Cl)N(c2cccc(Cl)c2)C1c1c[nH]c2ccccc12 (centres undefined)
OVCAR-8 ovarian
  TGI: > 100 µM
KM20L2 colon
  TGI: > 100 µM
HL-60(TB) leukemia
  TGI: > 100 µM
MALME-3M melanoma
  TGI: > 100 µM
SR leukemia
  TGI: > 100 µM

## Nc1ccccc1Nc1ccccc1C(=O)[O-].Nc1ccccc1Nc1ccccc1C(=O)[O-].[Zn+2]
OVCAR-8 ovarian
  TGI: > 100 µM
KM20L2 colon
  TGI: > 100 µM
MALME-3M melanoma
  TGI: > 100 µM
A498 renal
  TGI: > 100 µM

## Cc1nc2c(c(=O)[nH]1)S/C(=C(/C#N)c1nc3ccccc3[nH]1)N2c1ccccc1
OVCAR-8 ovarian
  TGI: > 100 µM
KM20L2 colon
  TGI: > 100 µM
HL-60(TB) leukemia
  TGI: > 100 µM
MALME-3M melanoma
  TGI: > 100 µM
SR leukemia
  TGI: > 100 µM
A498 renal
  TGI: > 100 µM

## COc1ccc2c(c1O)-c1cc(O)cc3c1[C@@H](C2)N(C)CC3
OVCAR-8 ovarian
  TGI: 8.27 µM
MCF7 breast
  TGI: 129 µM
KM20L2 colon
  TGI: 31.2 µM
HL-60(TB) leukemia
  TGI: 191 µM
MALME-3M melanoma
  TGI: 126 µM
NCI-H226 lung
  TGI: 108 µM
A498 renal
  TGI: 125 µM

## C=C(C)C(=O)O[C@H]1CC2=C[C@@H](C[C@@]3(C)O[C@@H]3[C@H]3OC(=O)C(=C)[C@@H]31)OC2=O
OVCAR-8 ovarian
  GI50: 406 nM
  TGI: 0.707 µM
MCF7 breast
  TGI: 5.42 µM
KM20L2 colon
  TGI: 10.5 µM
HL-60(TB) leukemia
  TGI: 1.12 µM
MALME-3M melanoma
  TGI: 5.62 µM
NCI-H226 lung
  TGI: 30.7 µM
A498 renal
  TGI: 9.06 µM

## C(/C=C/c1ccccc1)=Nc1ccc2c(c1)Cc1ccccc1-2
OVCAR-8 ovarian
  TGI: > 100 µM
PC-3 prostate
  TGI: > 100 µM
MALME-3M melanoma
  TGI: > 100 µM
MDA-N
  TGI: > 100 µM
NCI-H226 lung
  TGI: > 100 µM
HS 578T breast
  TGI: > 100 µM
SR leukemia
  TGI: 90.4 µM
A498 renal
  TGI: > 100 µM

## COc1cc(C2S/C(=C/c3ccccc3)C(=O)N2c2ccc(NC(C)=O)cc2)cc(OC)c1OC (centres undefined)
OVCAR-8 ovarian
  TGI: 76.9 µM
MCF7 breast
  TGI: > 100 µM
PC-3 prostate
  TGI: 48.1 µM
MALME-3M melanoma
  TGI: 55.6 µM
MDA-N
  TGI: 63.4 µM
HS 578T breast
  TGI: 83.2 µM
SR leukemia
  TGI: > 100 µM
A498 renal
  TGI: 67.3 µM

## NC(CSCc1ccc(I)cc1)C(=O)O (centres undefined)
OVCAR-8 ovarian
  TGI: > 100 µM
MCF7 breast
  TGI: > 100 µM
PC-3 prostate
  TGI: > 100 µM
HL-60(TB) leukemia
  TGI: > 100 µM
MALME-3M melanoma
  TGI: > 100 µM
MDA-N
  TGI: > 100 µM
NCI-H226 lung
  TGI: > 100 µM
HS 578T breast
  TGI: > 100 µM
A498 renal
  TGI: > 100 µM

## CC[C@@H]1ON(C)[C@H]2CN(C)C(=O)[C@@H]12
OVCAR-8 ovarian
  TGI: > 100 µM
MCF7 breast
  TGI: > 100 µM
PC-3 prostate
  TGI: > 100 µM
HL-60(TB) leukemia
  TGI: > 100 µM
MDA-N
  TGI: > 100 µM
NCI-H226 lung
  TGI: > 100 µM
HS 578T breast
  TGI: > 100 µM
SR leukemia
  TGI: > 100 µM

## CC(=O)N1N=C(c2ccc3ccccc3c2O)CC1c1cccs1 (centres undefined)
OVCAR-8 ovarian
  TGI: > 100 µM
MCF7 breast
  TGI: > 100 µM
PC-3 prostate
  TGI: > 100 µM
MALME-3M melanoma
  TGI: > 100 µM
MDA-N
  TGI: > 100 µM
NCI-H226 lung
  TGI: > 100 µM
HS 578T breast
  TGI: > 100 µM
SR leukemia
  TGI: 14.3 µM
A498 renal
  TGI: 44.5 µM
